Source: the NIST ThermoML archive (doi:10.1016/j.tca.2017.09.003)
Numbers after ± are expanded uncertainties.

Conditions: Crystal; DTA

Cc1oncc1C(=O)Nc1ccc(C(F)(F)F)cc1
Normal melting temperature: 169.00 ± 2 °C
